Measured values taken from patent US11179390B2, “Subcutaneous administration of a P2Y12 receptor antagonist” (Idorsia Pharmaceuticals Ltd, priority 2017, dated 2021).
“And” between values parts separate entries of the source, which are not always exact repeats. Equal values may be shown once. Where a name gives a salt, the structure may show the parent alone.

Key:
[1] = tested on: ADP-induced AF488-Fibrinogen binding on mouse platelets; assay: AF488-Fibrinogen binding assay on whole blood after subcutaneous administration of P2Y12 receptor antagonists; assay type: in vivo, mouse (male Balb/c)
Source text: In-Vivo Measurements of Time Dependent Platelet Inhibition after Subcutaneous Administration of P2Y12 Receptor Antagonists:
Male Balb/c mice were purchased from Charles River laboratories (Sulzfeld, Germany). All animals were maintained under identical conditions in accordance with the guidelines of the Basel-Landschaft cantonal veterinary office. Husbandry was accomplished in professional animal housing facilities, which provided group-cages, standard diet/water ad libitum, and standard illumination and climate conditions. The technical assistants performed at least one inspection per day. Sufficient time was provided for the animals to be accustomed to the experimental environment. Stress reduction was provided also by enrichment of cages, and providing the possibility to retire to dark housings (taking advantage of the color blindness of albino mice in the red range of the light spectrum). Inside the red housing the animals have the impression of being in the dark, while this housing remains visible to normal human vision.
Compound 1 hydrochloride, 0.2 mg/kg (respectively 5 mL/kg)
Elinogrel, 30 mg/kg (respectively 5 mL/kg)
Cangrelor, 0.2 mg/kg (respectively 5 mL/kg)
After an acclimatization period of at least 7 days, mice were anesthetized with Isoflurane (2-5%). The animals were then placed on a thermostatically-controlled heating table to maintain body temperature at 36-38° C. A polyurethane catheter (BTPU-027) was inserted into the right jugular vein and advanced into the vena cava for infusion of Heparin and to collect blood. […] Therefore Heparin (4000 U/kg/2.5 mL) was intravenously injected to prevent blood from coagulation.
Two minutes after the injection of Heparin, 60 μL of whole blood was collected via the vena cava catheter (baseline). […] 10, 20, 30, 40 and 60 minutes after the subcutaneous injection of the test compounds, 60 μL of whole blood were collected via the vena cava catheter for the fibrinogen binding assay.
(§1) This assay is particularly well adapted for reliable studies of the effect of P2Y12 antagonists on mouse platelets under in vitro and in vivo conditions. The assay allows to measure ADP-induced AF488-Fibrinogen binding on mouse platelets in only 6 μL whole blood and without washing steps.
(§2) Next, 10 μL of AF488-Fibrinogen (to give 0.5 mg/mL final concentration) were added followed by incubation of 5 minutes. To induce AF488-Fibrinogen binding, the platelets were then incubated with 10 μL ADP (to give 20 μM final concentration) for 5 minutes. In addition, an incubation with a platelet specific Allophycocyanin (APC) anti-Mouse CD61 (integrin beta 3) antibody (clone 2C9.G2) was performed for 10 minutes. The platelets were then fixed by addition of 34 μL cold paraformaldehyde solution (to give 0.1% final concentration) and stored at 4° C. for about 20 minutes. The samples were finally diluted with 1.8 mL cold PBS and put on hold at 4° C. for at least 2 hours, time necessary for gently red blood cell lysis, before measuring by flow cytometry.
Flow cytometry was performed using a FACSCanto II instrument (BD Bioscience). The setting of fluorescence compensation was not required due to the use of two different lasers.
Platelets were first detected using the platelet specific fluorescence signal of APC-CD61 (APC-settings for fluorescence emission peak at 660 nm). The platelet population was then gated using forward-scatter (FSC) and side-scatter (SSC) and their FITC-labeled Fibrinogen signal (FITC-settings for fluorescence emission peak at 525 nm) was quantitated as Mean Fluorescence Intensity (MFI) of 5000 platelets. For each sample, the MFI from corresponding nonspecific sample was subtracted.

[2] = tested on: ADP-induced AF488-Fibrinogen binding on platelets; assay: In vitro inhibition of ADP-induced AF488-Fibrinogen binding (nonspecific signal control); assay type: cell-based; conditions: Mus musculus, Platelet, 0.25 h; 2 μM final concentration in diluted blood, 15 minutes at RT, 20 μM ADP; prior experiments
Procedure: as §1
as §2, with “The blood was first incubated with 4 μL vehicle or 4 μL Compound 1 hydrochloride (to give 2 μM final concentration in diluted blood) for 15 minutes at RT. This concentration of Compound 1 hydrochloride was determined in prior experiments to inhibit 100% of ADP-induced AF488-Fibrinogen binding on platelets and represents the nonspecific signal. Next,” for “Next,”

With `CSCCNc1nc(SCCC(F)(F)F)nc2c1ncn2[C@@H]1O[C@H](COP(=O)(O)OP(=O)(O)C(Cl)(Cl)P(=O)(O)O)[C@@H](O)[C@H]1O` [Cangrelor] the “Mean Fluorescence Intensities of AF488-Fibrinogen binding to platelets” value (“Mean Fluorescence Intensities” for short) ([1]; 0.2 mg/kg s.c., 10 min after injection) was 1596 MFI and 1628 MFI and 2550 MFI, the “Mean Fluorescence Intensities” value ([1]; 0.2 mg/kg s.c., 20 min after injection) was 713 MFI and 1364 MFI and 1012 MFI and the “Mean Fluorescence Intensities” value ([1]; 0.2 mg/kg s.c., 40 min after injection) was 765 MFI and 732 MFI and 921 MFI. The “Mean Fluorescence Intensities” value ([1]; 0.2 mg/kg s.c., 60 min after injection) was 1048 MFI and 682 MFI and 961 MFI and the “Mean Fluorescence Intensities” value ([1]; 0.2 mg/kg s.c., time 0 min (baseline, before injection)) was 6200 MFI and 7453 MFI and 5476 MFI.
With `CCCCOC(=O)N1CCN(C(=O)[C@H](CP(=O)(O)O)NC(=O)c2cc(N3CC[C@H](OC)C3)nc(-c3ccccc3)n2)CC1` [Compound 1 hydrochloride, ((R)-3-(4-(butoxycarbonyl)piperazin-1-yl)-2-(6-((S)-3-methoxypyrrolidin-1-yl)-2-phenylpyrimidine-4-carboxamido)-3-oxopropyl)phosphonic acid hydrochloride] the inhibition at 2 µM [2] was 100%.
With `CNc1cc2[nH]c(=O)n(-c3ccc(NC(=O)NS(=O)(=O)c4ccc(Cl)s4)cc3)c(=O)c2cc1F` [Elinogrel] the “Mean Fluorescence Intensities” value ([1]; 30 mg/kg s.c., 10 min after injection) was 4403 MFI and 4712 MFI and 3842 MFI and 3840 MFI, the “Mean Fluorescence Intensities” value ([1]; 30 mg/kg s.c., 20 min after injection) was 2374 MFI and 3847 MFI and 2177 MFI and 4078 MFI and the “Mean Fluorescence Intensities” value ([1]; 30 mg/kg s.c., 40 min after injection) was 1644 MFI and 1768 MFI and 1652 MFI and 2619 MFI. The “Mean Fluorescence Intensities” value ([1]; 30 mg/kg s.c., 60 min after injection) was 2034 MFI and 1503 MFI and 1515 MFI and 2191 MFI and the “Mean Fluorescence Intensities” value ([1]; 30 mg/kg s.c., time 0 min (baseline, before injection)) was 8124 MFI and 5370 MFI and 7045 MFI and 7097 MFI.
